This note sets out measurements from paper PMC4503349 (PLoS ONE, 2015).

For assay [1], the target named is T1, calcineurin (CaN; CnAα catalytic subunit) (Homo sapiens, UniProt Q08209).
T1 construct: gene PPP3CA; recombinant human CaN, comprising CnAα and CnB subunits; with calcineurin B (CnB); calmodulin
Nature of the assay: malachite green phosphatase assay with RII phosphopeptide, absorbance dose-response, calmodulin present. Type of assay: biochemical.

Assay [2] addresses T1, calcineurin (CaN; CnAα catalytic subunit). Nature of the assay: malachite green phosphatase assay with RII phosphopeptide. Type of assay: biochemical.

Structures can show the parent of a compound that is named as a salt.

Broadly, the IC50 is the concentration that gives 50% inhibition. In the case of `Fc1ccc(C(c2ccc(F)cc2)N2CCN(C/C=C/c3ccccc3)CC2)cc1` [LDN-0013905, flunarizine hydrochloride], the IC50 in assay [1] (read-out: IC50) is 106 µM.
Consider `O=C(O)[C@@H]1[C@H](C(=O)O)[C@H]2CC[C@@H]1O2` [endothall], for which the IC50 in assay [2] came to 12.6 µM.
As for `CN1CCN(CCCN2c3ccccc3Sc3ccc(C(F)(F)F)cc32)CC1` [LDN-0013906, tri-fluoperazine dihydrochloride], in assay [1], the IC50 stood at 4.5 µM.
